Test results as given in ChEMBL document CHEMBL3621140, “Sulfonamide derivatives containing dihydropyrazole moieties selectively and potently inhibit MMP-2/MMP-9: Design, synthesis, inhibitory activity and 3D-QSAR analysis” (Bioorg Med Chem Lett, 2015).

Key:
[1] = target: 72 kDa type IV collagenase (Homo sapiens, UniProt P08253); assay: Inhibition of APMA-activated human recombinant MMP2 incubated for 5 mins using 4-nitrophenylacetate substrate by esterase assay
[2] = Cytotoxicity against HEK293T cells incubated for 48 hrs by MTT assay; format: cell-based, HEK-293T; settings: human
HepG2 = assay: Antiproliferative activity against human HepG2 cells incubated for 48 hrs by MTT assay; format: functional, cell-based; settings: HepG2, 48 h
[3] = target: Matrix metalloproteinase-9 (Homo sapiens, UniProt P14780); assay: Inhibition of APMA-activated human recombinant MMP9 incubated for 5 mins using 4-nitrophenylacetate substrate by esterase assay
Chain of Matrix metalloproteinase-9 (P14780 whole entry): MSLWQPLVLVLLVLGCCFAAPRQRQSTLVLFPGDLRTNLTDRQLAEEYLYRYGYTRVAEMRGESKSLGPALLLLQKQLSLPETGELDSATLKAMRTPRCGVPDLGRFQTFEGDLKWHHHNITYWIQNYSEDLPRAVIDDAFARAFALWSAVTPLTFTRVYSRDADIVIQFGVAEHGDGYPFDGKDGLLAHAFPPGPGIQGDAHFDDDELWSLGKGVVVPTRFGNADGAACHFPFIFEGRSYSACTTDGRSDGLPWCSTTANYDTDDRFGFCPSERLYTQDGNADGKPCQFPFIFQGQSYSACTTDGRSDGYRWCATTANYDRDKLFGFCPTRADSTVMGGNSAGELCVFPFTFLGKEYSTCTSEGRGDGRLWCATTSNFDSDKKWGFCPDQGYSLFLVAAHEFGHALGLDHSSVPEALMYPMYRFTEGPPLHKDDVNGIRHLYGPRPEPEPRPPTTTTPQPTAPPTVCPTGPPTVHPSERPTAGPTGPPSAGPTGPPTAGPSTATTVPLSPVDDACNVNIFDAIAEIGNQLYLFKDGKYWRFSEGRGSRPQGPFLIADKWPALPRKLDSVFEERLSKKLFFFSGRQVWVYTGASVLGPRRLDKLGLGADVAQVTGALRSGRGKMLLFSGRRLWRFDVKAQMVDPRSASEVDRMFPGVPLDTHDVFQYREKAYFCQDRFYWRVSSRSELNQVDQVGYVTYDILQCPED

MCF7 = assay: Antiproliferative activity against human MCF7 cells incubated for 48 hrs by MTT assay; format: functional, cell-based; settings: MCF7, 48 h
A549 [4] = assay: cells; settings: Homo sapiens, A549, 48 h
HeLa = assay: Antiproliferative activity against human HeLa cells incubated for 48 hrs by MTT assay; format: functional, cell-based
A549 [5] = assay: Induction of apoptosis in human A549 cells assessed as early apoptotic cells level at 16 uM by AnnexinV-FITC and propidium iodide staining based flow cytometry (reference value: 5.08%); format: functional
A549 [6] = assay: Induction of apoptosis in human A549 cells assessed as late apoptotic cells level at 2 uM by AnnexinV-FITC and propidium iodide staining based flow cytometry (reference value: 8.81%); format: functional
A549 [7] = assay: Induction of apoptosis in human A549 cells assessed as late apoptotic cells level at 4 uM by AnnexinV-FITC and propidium iodide staining based flow cytometry (reference value: 8.81%); format: functional
A549 [8] = assay: Induction of apoptosis in human A549 cells assessed as viable cells at 4 uM by AnnexinV-FITC and propidium iodide staining based flow cytometry (reference value: 85.3%); format: functional; settings: read-out: Activity
A549 [9] = assay: Induction of apoptosis in human A549 cells by AnnexinV-FITC and propidium iodide staining based flow cytometry; format: functional, cell-based
A549 [10] = assay: Induction of apoptosis in human A549 cells assessed as early apoptotic cells level at 4 uM by AnnexinV-FITC and propidium iodide staining based flow cytometry (reference value: 5.08%); format: functional
A549 [11] = assay: Induction of apoptosis in human A549 cells assessed as necrotic cells level at 2 uM by AnnexinV-FITC and propidium iodide staining based flow cytometry (reference value: 0.964%); format: functional
A549 [12] = assay: Induction of apoptosis in human A549 cells assessed as necrotic cells level at 16 uM by AnnexinV-FITC and propidium iodide staining based flow cytometry (reference value: 0.964%); format: functional
A549 [13] = assay: Induction of apoptosis in human A549 cells assessed as late apoptotic cells level at 16 uM by AnnexinV-FITC and propidium iodide staining based flow cytometry (reference value: 8.81%); format: functional
A549 [14] = assay: Induction of apoptosis in human A549 cells assessed as necrotic cells level at 4 uM by AnnexinV-FITC and propidium iodide staining based flow cytometry (reference value: 0.964%); format: functional
A549 [15] = assay: Induction of apoptosis in human A549 cells assessed as viable cells at 2 uM by AnnexinV-FITC and propidium iodide staining based flow cytometry (reference value: 85.3%); format: functional; settings: read-out: Activity
A549 [16] = assay: Induction of apoptosis in human A549 cells assessed as early apoptotic cells level at 2 uM by AnnexinV-FITC and propidium iodide staining based flow cytometry (reference value: 5.08%); format: functional
A549 [17] = assay: Induction of apoptosis in human A549 cells assessed as viable cells at 16 uM by AnnexinV-FITC and propidium iodide staining based flow cytometry (reference value: 85.3%); format: functional; settings: read-out: Activity

Chain of 72 kDa type IV collagenase (P08253 whole entry): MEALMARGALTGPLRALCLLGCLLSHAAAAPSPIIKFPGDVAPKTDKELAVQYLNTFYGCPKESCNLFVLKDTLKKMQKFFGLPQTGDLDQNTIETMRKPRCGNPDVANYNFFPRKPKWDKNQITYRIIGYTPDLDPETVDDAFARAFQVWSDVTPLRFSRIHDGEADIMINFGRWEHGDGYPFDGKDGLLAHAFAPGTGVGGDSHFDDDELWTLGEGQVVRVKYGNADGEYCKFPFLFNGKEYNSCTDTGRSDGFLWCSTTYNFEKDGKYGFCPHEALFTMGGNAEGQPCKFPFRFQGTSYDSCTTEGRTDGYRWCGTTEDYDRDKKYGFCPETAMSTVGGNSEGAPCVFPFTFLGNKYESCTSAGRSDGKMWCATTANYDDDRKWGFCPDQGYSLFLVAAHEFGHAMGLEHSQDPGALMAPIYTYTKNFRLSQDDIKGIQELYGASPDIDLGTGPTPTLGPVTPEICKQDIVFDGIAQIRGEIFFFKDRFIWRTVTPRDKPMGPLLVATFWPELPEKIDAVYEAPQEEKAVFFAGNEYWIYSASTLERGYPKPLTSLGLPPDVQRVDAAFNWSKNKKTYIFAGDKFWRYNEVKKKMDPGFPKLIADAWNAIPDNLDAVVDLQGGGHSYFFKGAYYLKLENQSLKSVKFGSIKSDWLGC

SMILES	IC50 ([1]; read-out: IC50) [µM]	IC50 (HepG2) [µM]	IC50 [3] [µM]	IC50 (MCF7) [µM]	IC50 (A549 [4]) [µM]	IC50 (HeLa) [µM]	CC50 at 48 h [2] [µM]	further results
COc1ccc(C2=NN(c3ccc(S(N)(=O)=O)cc3)C(c3ccc4ccccc4c3)C2)cc1 (centres undefined)	9.9	22.3	19	50.6	9.31	35.4	45.4	–
Cc1ccccc1C1=NN(c2ccc(S(N)(=O)=O)cc2)C(c2cccc3ccccc23)C1 (centres undefined)	2.91	5.38	5.43	10	2.84	6.37	51.2	–
COc1cc2ncnc(Nc3ccc(F)c(Cl)c3)c2cc1OCCCN1CCOCC1 [GEFITINIB]	–	–	–	–	2.86	–	–	–
NS(=O)(=O)c1ccc(N2N=C(c3ccccc3)CC2c2ccc3ccccc3c2)cc1 (centres undefined)	12.6	17.9	33.8	21.6	8.42	13	50.5	–
Cc1ccc(C2=NN(c3ccc(S(N)(=O)=O)cc3)C(c3ccc4ccccc4c3)C2)cc1 (centres undefined)	2.81	8.32	4.95	18.2	6.9	17.6	53.1	–
Cc1ccc(C2=NN(c3ccc(S(N)(=O)=O)cc3)C(c3cccc4ccccc34)C2)c(C)c1 (centres undefined)	0.21	6.99	1.87	18.1	1.9	12.1	52.5	Activity (A549 [5]): 3.88%; Activity (A549 [6]): 10.2%; Activity (A549 [7]): 12.9%; viability at 4 µM (A549 [8]): 81.1%; Activity (A549 [9]): Dose-dependent effect; Activity (A549 [10]): 4.84%; Activity (A549 [11]): 1.1%; Activity (A549 [12]): 0.868%; Activity (A549 [13]): 16.9%; Activity (A549 [14]): 1.14%; viability at 2 µM (A549 [15]): 82.8%; Activity (A549 [16]): 5.91%; viability at 16 µM (A549 [17]): 78.3%
C[C@@]1(O)c2cccc(O)c2C(=O)C2=C(O)[C@]3(O)C(=O)C(C(N)=O)=C(O)C[C@@H]3C[C@@H]21	1.26	–	2.52	–	–	–	–	–
CCOc1ccc(C2=NN(c3ccc(S(N)(=O)=O)cc3)C(c3ccc4ccccc4c3)C2)cc1 (centres undefined)	14.9	9.17	18.3	38.2	17.8	35.4	53.8	–
Cc1cccc(C2=NN(c3ccc(S(N)(=O)=O)cc3)C(c3ccc4ccccc4c3)C2)c1 (centres undefined)	3.86	7.68	5.92	11.1	7.64	26.4	52.4	–
NS(=O)(=O)c1ccc(N2N=C(c3ccc(F)cc3)CC2c2ccc3ccccc3c2)cc1 (centres undefined)	16.8	20.7	19.8	12.3	6.95	26.1	49.5	–
Cc1ccccc1C1=NN(c2ccc(S(N)(=O)=O)cc2)C(c2ccc3ccccc3c2)C1 (centres undefined)	11.4	6.88	7.91	16.3	6.84	15.6	51.7	–
Cc1ccc(-c2cc(C(F)(F)F)nn2-c2ccc(S(N)(=O)=O)cc2)cc1 [CELECOXIB]	–	0.76	–	6.88	2.15	7.55	54.4	–
NS(=O)(=O)c1ccc(N2N=C(c3ccc(Cl)cc3)CC2c2ccc3ccccc3c2)cc1 (centres undefined)	3.6	25	5.88	12.4	2.76	19.2	54.8	–
NS(=O)(=O)c1ccc(N2N=C(c3cccc(F)c3)CC2c2ccc3ccccc3c2)cc1 (centres undefined)	23.8	24.8	5.96	13.1	7.83	21.1	49	–
NS(=O)(=O)c1ccc(N2N=C(c3ccccc3Cl)CC2c2cccc3ccccc23)cc1 (centres undefined)	8.63	10	12	23.6	7.38	29.1	53.1	IC50 ([1]; read-out: pIC50 (converted)): 8.51 µM
NS(=O)(=O)c1ccc(N2N=C(c3cccc(I)c3)CC2c2ccc3ccccc3c2)cc1 (centres undefined)	15.7	18.1	6.91	11.1	12	32	55.9	–
NS(=O)(=O)c1ccc(N2N=C(c3ccccc3Cl)CC2c2ccc3ccccc3c2)cc1 (centres undefined)	14.8	31.1	8.72	8.64	2.16	16.4	49.9	–
NS(=O)(=O)c1ccc(N2N=C(c3cccc(Br)c3)CC2c2ccc3ccccc3c2)cc1 (centres undefined)	17.8	29	13.9	9.15	10.3	23.7	47	–

Now from value to compound, other results behind:

IC50 ([1]; read-out: IC50) [µM]	IC50 (HepG2) [µM]	IC50 [3] [µM]	IC50 (MCF7) [µM]	IC50 (A549 [4]) [µM]	IC50 (HeLa) [µM]	SMILES	CC50 at 48 h [2] [µM]	further results
4.27	27.8	8.61	26.4	6.51	30.1	COc1ccc(C2=NN(c3ccc(S(N)(=O)=O)cc3)C(c3cccc4ccccc34)C2)cc1 (centres undefined)	47.1	IC50 ([1]; read-out: pIC50 (converted)): 4.17 µM
11.4	14.9	7.97	28.8	8.19	28.8	NS(=O)(=O)c1ccc(N2N=C(c3cccc(Br)c3)CC2c2cccc3ccccc23)cc1 (centres undefined)	42.2	IC50 ([1]; read-out: pIC50 (converted)): 11.2 µM
9.43	8.06	12.9	18.1	6.83	26	NS(=O)(=O)c1ccc(N2N=C(c3cccc(I)c3)CC2c2cccc3ccccc23)cc1 (centres undefined)	46.9	–
4.83	36.4	6.72	26.1	5.82	30.6	COc1cccc(C2=NN(c3ccc(S(N)(=O)=O)cc3)C(c3cccc4ccccc34)C2)c1 (centres undefined)	45.3	–
7.92	19.1	10.9	22.6	12.9	20.2	NS(=O)(=O)c1ccc(N2N=C(c3ccccc3)CC2c2cccc3ccccc23)cc1 (centres undefined)	51.4	–
0.81	8.66	3.19	35.1	3.33	18.5	CCOc1ccc(C2=NN(c3ccc(S(N)(=O)=O)cc3)C(c3cccc4ccccc34)C2)cc1 (centres undefined)	59.5	–
6.81	7.04	16	9.89	7.77	8.61	Cc1ccc(C2=NN(c3ccc(S(N)(=O)=O)cc3)C(c3cccc4ccccc34)C2)cc1 (centres undefined)	51.3	–
2.15	26	4.68	13.6	8.67	36.5	COc1cccc(C2=NN(c3ccc(S(N)(=O)=O)cc3)C(c3ccc4ccccc4c3)C2)c1 (centres undefined)	49.4	–
2.7	16.4	5.47	18	2.98	11.5	NS(=O)(=O)c1ccc(N2N=C(c3ccc(Cl)cc3)CC2c2cccc3ccccc23)cc1 (centres undefined)	49.2	–
3.24	5.83	4.29	8.63	3.14	9.87	Cc1cccc(C2=NN(c3ccc(S(N)(=O)=O)cc3)C(c3cccc4ccccc34)C2)c1 (centres undefined)	48.2	–
